Data from ChEMBL document CHEMBL4308863, “Oxidative nucleophilic substitution selectively produces cambinol derivatives with antiproliferative activity on bladder cancer cell lines” (Bioorg Med Chem Lett, 2019).
The source made the active and inactive calls. The rule behind the calls is not given here.

Assays:
[1] = Cytotoxicity against human C3PV cells assessed as decrease in cell viability after 24 hrs by MTT assay; assay type: cell-based
EJ [2] = assay: Antiproliferative activity against human MGHU1 cells expressing wild-type p53 assessed as decrease in cell viability after 3 hrs by MTT assay; assay type: functional, cell-based
[3] = biological target: T1, NAD-dependent protein deacetylase sirtuin-1 (Homo sapiens) (UniProt Q96EB6); assay: Inhibition of SIRT1 (unknown origin) at 10 uM using acetylated peptide p53K382 as substrate preincubated for 15 mins followed by substrate addition and measured after 40 mins by fluorescence assay
T1 sequence (whole entry): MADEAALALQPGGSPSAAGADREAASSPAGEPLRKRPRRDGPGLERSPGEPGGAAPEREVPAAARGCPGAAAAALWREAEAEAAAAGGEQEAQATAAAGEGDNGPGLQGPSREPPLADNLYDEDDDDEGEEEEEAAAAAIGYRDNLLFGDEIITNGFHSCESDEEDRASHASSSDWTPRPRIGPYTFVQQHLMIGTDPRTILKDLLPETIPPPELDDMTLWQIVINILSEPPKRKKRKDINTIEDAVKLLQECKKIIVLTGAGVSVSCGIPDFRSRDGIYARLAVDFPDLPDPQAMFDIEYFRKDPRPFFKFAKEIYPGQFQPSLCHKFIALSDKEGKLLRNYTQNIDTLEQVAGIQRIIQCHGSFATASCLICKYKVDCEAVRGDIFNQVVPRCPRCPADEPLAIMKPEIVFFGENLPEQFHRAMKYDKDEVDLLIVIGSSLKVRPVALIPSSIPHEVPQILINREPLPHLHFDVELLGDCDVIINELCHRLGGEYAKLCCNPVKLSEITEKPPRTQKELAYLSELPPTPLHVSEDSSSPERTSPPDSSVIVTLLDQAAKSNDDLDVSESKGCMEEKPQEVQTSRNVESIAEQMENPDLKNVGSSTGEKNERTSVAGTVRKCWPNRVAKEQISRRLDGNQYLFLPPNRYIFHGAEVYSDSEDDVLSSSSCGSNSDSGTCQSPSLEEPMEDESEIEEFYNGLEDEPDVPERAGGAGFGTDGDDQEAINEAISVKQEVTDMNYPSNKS

[4] = Cytotoxicity against human C3PV cells assessed as decrease in cell viability after 3 hrs by MTT assay; assay type: cell-based
RT-112 [5] = assay: Antiproliferative activity against human RT112 cells expressing p53 mutant assessed as decrease in cell viability after 3 hrs by MTT assay; assay type: functional, cell-based; settings: RT-112, 3 h
EJ [6] = assay: Antiproliferative activity against human MGHU1 cells expressing wild-type p53 assessed as decrease in cell viability after 24 hrs by MTT assay; assay type: functional, cell-based
RT-112 [7] = assay: Antiproliferative activity against human RT112 cells expressing p53 mutant assessed as decrease in cell viability after 24 hrs by MTT assay; assay type: functional, cell-based; settings: RT-112, 24 h
EJ [8] = assay: Effect on acetylated-p53 expression in human MGHU1 cells after 3 to 24 hrs by Western blot analysis; assay type: functional, cell-based
[9] = biological target: T1, NAD-dependent protein deacetylase sirtuin-1 (Homo sapiens); assay: Inhibition of SIRT1 in human MGHU1 cells assessed as stabilization of p53 by measuring increase in p53 acetylation after 3 to 24 hrs by Western blot analysis; assay type: cell-based
RT-112 [10] = assay: Inhibition of colony formation in human RT112 cells expressing p53 mutant at 24.50 to 28.74 uM after 3 to 24 hrs by crystal violet staining based assay; assay type: functional, cell-based
[11] = biological target: T1, NAD-dependent protein deacetylase sirtuin-1 (Homo sapiens); assay: Inhibition of SIRT1 in human MGHU1 cells assessed as induction of p53 after 3 to 24 hrs by Western blot analysis; assay type: cell-based
EJ [12] = assay: Inhibition of colony formation in human MGHU1 cells expressing wild-type p53 at […] uM after 3 to 24 hrs by crystal violet staining based assay; assay type: functional, cell-based
EJ [13] = assay: Effect on acetylated-histone H3 expression in human MGHU1 cells after 3 to 24 hrs by Western blot analysis; assay type: functional, cell-based

| Compound | inhibition [3] | inhibition [9] | inhibition [11] | IC50 [1] | IC50 (EJ [2]) | IC50 [4] | IC50 (RT-112 [5]) | IC50 (EJ [6]) | IC50 (RT-112 [7]) | Activity (EJ [8]) | inhibition (RT-112 [10]) | inhibition (EJ [12]) | Activity (EJ [13]) |
| --- | --- | --- | --- | --- | --- | --- | --- | --- | --- | --- | --- | --- | --- |
| O=c1[nH]c(=S)[nH]c(-c2ccccc2)c1Cc1c(O)ccc2ccccc12 [CAMBINOL] |  |  |  | > 300 µM | 95.9 µM | 39.9 µM | 37.9 µM | 242 µM | 125 µM |  |  |  |  |
| CCCCNc1nc(-c2ccccc2)c(Cc2c(O)ccc3ccccc23)c(=O)[nH]1 | inactive | inactive | inactive | > 300 µM | 24.5 µM | 47.6 µM | 1.9 µM | 28.7 µM | 1.6 µM | inactive | Active | Active | inactive |
| CCN(CC)c1nc(-c2ccccc2)c(Cc2c(O)ccc3ccccc23)c(=O)[nH]1 | inactive |  |  | > 300 µM | 15.4 µM | > 300 µM | 32.2 µM | 79.7 µM | 155 µM |  |  |  |  |
| C#CCNc1nc(-c2ccccc2)c(Cc2c(O)ccc3ccccc23)c(=O)[nH]1 | inactive |  |  | > 300 µM | 16.8 µM | > 300 µM | 91.2 µM | 148 µM | 130 µM |  |  |  |  |
| O=c1[nH]c(NCCc2ccc(O)c(O)c2)nc(-c2ccccc2)c1Cc1c(O)ccc2ccccc12 | inactive |  |  | > 300 µM | 12.6 µM | > 300 µM | 35.9 µM | 71.7 µM | 79.3 µM |  |  |  |  |

More lines, main results first:

| inhibition [3] | inhibition [9] | inhibition [11] | Compound | IC50 [1] | IC50 (EJ [2]) | IC50 [4] | IC50 (RT-112 [5]) | IC50 (EJ [6]) | IC50 (RT-112 [7]) | Activity (EJ [8]) | inhibition (RT-112 [10]) | inhibition (EJ [12]) | Activity (EJ [13]) |
| --- | --- | --- | --- | --- | --- | --- | --- | --- | --- | --- | --- | --- | --- |
| inactive |  |  | COc1ccc(Nc2nc(-c3ccccc3)c(Cc3c(O)ccc4ccccc34)c(=O)[nH]2)cc1 | > 300 µM | 160 µM | > 300 µM | 18.5 µM | 63.7 µM | 138 µM |  |  |  |  |
| inactive |  |  | O=c1[nH]c(NCCO)nc(-c2ccccc2)c1Cc1c(O)ccc2ccccc12 | > 300 µM | 282 µM | > 300 µM | 7.2 µM | > 300 µM | 96.6 µM |  |  |  |  |
| inactive |  |  | O=c1[nH]c(Nc2ccc(O)cc2)nc(-c2ccccc2)c1Cc1c(O)ccc2ccccc12 | > 300 µM | 90.9 µM | > 300 µM | > 300 µM | 92.4 µM | 265 µM |  |  |  |  |
| inactive |  |  | O=c1[nH]c(NCCc2ccc(O)cc2)nc(-c2ccccc2)c1Cc1c(O)ccc2ccccc12 | > 300 µM | 22.1 µM | 145 µM | 48.9 µM | 82.1 µM | 106 µM |  |  |  |  |
